Reference: patent US10227331B2 (priority 2015, dated 2019)
Where two headings read alike, the source gives them in different places.

How the values were obtained:
IMP-1 = IMP-1 (Serratia marcescens, UniProt P52699); experiment: biochemical; format: biochemical
Method in brief: (§1)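 Semi-log dose-response curves, fitted with a 4-parameter model, gave IC50s. The underlying signal was CCF2-FA fluorescence following 2 hours at 25° C with enzyme, substrate and inhibitor combined.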

NDM-1 = NDM-1 (Klebsiella pneumoniae, UniProt C7C422); experiment: biochemical; format: biochemical; details: CCF2-FA substrate, 2 hours at 25° C; read-out: NDM-1 IC50
Method in brief: as §1

VIM-1 = VIM-1 (Pseudomonas aeruginosa (strain ATCC 15692 / DSM 22644 / CIP 104116 / JCM 14847 / LMG 12228 / 1C / PRS 101 / PAO1), UniProt A0A0F7KYQ8); experiment: biochemical; details: CCF2-FA substrate, 2 hours at 25° C
Method in brief: as §1

[1] = test system: Escherichia coli expressing NDM-1 (CLB30005, CLB30016); format: cell-based; details: with imipenem 1 μg/ml; 95% inhibition of bacterial growth
Method in brief: (§2)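 Restoration of imipenem susceptibility (1 μg/ml imipenem) was judged by absorbance after 22–24 h at 35° C. Test compound was added to bacteria suspended 1:100 in 1.1× CAMHB from overnight blood-agar cultures.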

[2] = test system: Klebsiella pneumoniae expressing VIM-1 (IHMA599644); format: cell-based; details: with imipenem 1 μg/ml; 95% inhibition of bacterial growth
Method in brief: as §2

[3] = test system: Serratia marcescens expressing IMP-1 (CL5741); format: cell-based; details: with imipenem 1 μg/ml; 95% inhibition of bacterial growth
Method in brief: as §2

[4] = test system: P. aeruginosa expressing IMP-1, efflux+ (MB9798); format: cell-based, Pseudomonas aeruginosa; details: for P. aeruginosa expressing IMP-1, efflux+ (MB9798) MITC95: imipenem at 2 μg/mL, in the presence of a class A, C, D serine β-lactamase inhibitor closely related to relebactam; for Efflux ratio: ratio MITC95 PA_9798/MITC95 PA_9799
Description: (§3) The strain background is Pseudomonas aeruginosa PAO1.

[5] = test system: P. aeruginosa expressing IMP-1, efflux− (MB9799); experiment: Efflux: concentration of MBL inhibitor which restores susceptibility to imipenem; format: cell-based, Pseudomonas aeruginosa; details: imipenem at 2 μg/mL, in the presence of a class A, C, D serine β-lactamase inhibitor closely related to relebactam
Description: as §3

[6] = CCF2-FA substrate, 2 hours at 25° C, read-out: IMP-1 IC50

Sequence of NDM-1 (C7C422 whole entry, looked up, species assumed): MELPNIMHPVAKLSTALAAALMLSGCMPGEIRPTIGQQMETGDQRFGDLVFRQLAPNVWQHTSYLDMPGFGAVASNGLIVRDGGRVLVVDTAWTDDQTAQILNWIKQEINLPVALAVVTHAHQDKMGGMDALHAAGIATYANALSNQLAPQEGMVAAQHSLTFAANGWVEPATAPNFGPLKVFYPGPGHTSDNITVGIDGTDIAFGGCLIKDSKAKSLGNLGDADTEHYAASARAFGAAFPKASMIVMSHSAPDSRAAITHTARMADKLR
Sequence of IMP-1 (P52699 whole entry, looked up, species assumed): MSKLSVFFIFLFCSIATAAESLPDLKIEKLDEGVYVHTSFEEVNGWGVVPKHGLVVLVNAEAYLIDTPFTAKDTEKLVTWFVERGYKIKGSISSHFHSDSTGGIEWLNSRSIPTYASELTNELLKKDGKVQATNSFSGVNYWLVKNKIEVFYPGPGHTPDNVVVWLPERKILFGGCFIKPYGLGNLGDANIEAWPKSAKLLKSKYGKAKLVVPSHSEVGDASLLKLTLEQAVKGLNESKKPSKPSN

Nc1nc2cccc(-c3ccc(S(=O)(=O)C4CNC4)c(S(N)(=O)=O)c3-c3nn[nH]n3)c2o1 [Example 28, 3-(2-aminobenzo[d]oxazol-7-yl)-6-(azetidin-3-ylsulfonyl)-2-(2H-tetrazol-5-yl)benzenesulfonamide]
IC50 (IMP-1): 1.33 nM
IC50 (NDM-1): 0.0489 nM
IC50 (VIM-1): 0.173 nM
Escherichia coli expressing NDM-1 (CLB30016) MITC95 [1]: 1.563 µM
Klebsiella pneumoniae expressing VIM-1 (IHMA599644) MITC95 [2]: 3.125 µM
Serratia marcescens expressing IMP-1 (CL5741) MITC95 [3]: 3.125 µM
P. aeruginosa expressing IMP-1, efflux+ (MB9798) MITC95 [4]: 6.25 µM
Efflux ratio [4]: 4.00
P. aeruginosa expressing IMP-1, efflux− (MB9799) MITC95 [5]: 1.563 µM

Nc1nc2ccc(-c3ccc(S(=O)(=O)C4CNC4)c(S(N)(=O)=O)c3-c3nn[nH]n3)cc2o1 [Example 29, 3-(2-aminobenzo[d]oxazol-6-yl)-6-(azetidin-3-ylsulfonyl)-2-(2H-tetrazol-5-yl)benzenesulfonamide]
IC50 (IMP-1; [6]): 0.313 nM
IC50 (NDM-1): 0.24 nM
IC50 (VIM-1): 0.328 nM
Escherichia coli expressing NDM-1 (CLB30016) MITC95 [1]: 1.563 µM
Klebsiella pneumoniae expressing VIM-1 (IHMA599644) MITC95 [2]: 3.125 µM
Serratia marcescens expressing IMP-1 (CL5741) MITC95 [3]: 1.563 µM
P. aeruginosa expressing IMP-1, efflux+ (MB9798) MITC95 [4]: 3.125 µM
Efflux ratio [4]: 2.00
P. aeruginosa expressing IMP-1, efflux− (MB9799) MITC95 [5]: 1.563 µM

Nc1nc2c(-c3ccc(S(=O)(=O)C4CNC4)c(S(N)(=O)=O)c3-c3nn[nH]n3)cccc2o1 [Example 30, 3-(2-aminobenzo[d]oxazol-4-yl)-6-(azetidin-3-ylsulfonyl)-2-(2H-tetrazol-5-yl)benzenesulfonamide]
IC50 (IMP-1; [6]): 0.585 nM
IC50 (NDM-1): 0.0846 nM
IC50 (VIM-1): 0.409 nM
Escherichia coli expressing NDM-1 (CLB30016) MITC95 [1]: 0.7813 µM
Klebsiella pneumoniae expressing VIM-1 (IHMA599644) MITC95 [2]: 3.125 µM
Serratia marcescens expressing IMP-1 (CL5741) MITC95 [3]: 1.563 µM
P. aeruginosa expressing IMP-1, efflux+ (MB9798) MITC95 [4]: 1.563 µM
Efflux ratio [4]: 1.00
P. aeruginosa expressing IMP-1, efflux− (MB9799) MITC95 [5]: 1.563 µM

Nc1nc2cc(-c3ccc(S(=O)(=O)C4CNC4)c(S(N)(=O)=O)c3-c3nn[nH]n3)ccc2o1 [Example 31, 3-(2-aminobenzo[d]oxazol-5-yl)-6-(azetidin-3-ylsulfonyl)-2-(2H-tetrazol-5-yl)benzenesulfonamide]
IC50 (IMP-1; [6]): 1.37 nM
IC50 (NDM-1): 0.337 nM
IC50 (VIM-1): 0.373 nM
Escherichia coli expressing NDM-1 (CLB30016) MITC95 [1]: 1.563 µM
Klebsiella pneumoniae expressing VIM-1 (IHMA599644) MITC95 [2]: 3.125 µM
Serratia marcescens expressing IMP-1 (CL5741) MITC95 [3]: 1.563 µM
P. aeruginosa expressing IMP-1, efflux+ (MB9798) MITC95 [4]: 6.25 µM
Efflux ratio [4]: 4.00
P. aeruginosa expressing IMP-1, efflux− (MB9799) MITC95 [5]: 1.563 µM

Cc1ccc(-c2ccc(S(=O)(=O)C3CNC3)c(S(N)(=O)=O)c2-c2nn[nH]n2)c2nc(N)sc12 [Example 32, 3-(2-amino-7-methylbenzo[d]thiazol-4-yl)-6-(azetidin-3-ylsulfonyl)-2-(2H-tetrazol-5-yl)benzenesulfonamide]
IC50 (IMP-1; [6]): 0.138 nM
IC50 (NDM-1): 0.0331 nM
IC50 (VIM-1): 0.106 nM
Escherichia coli expressing NDM-1 (CLB30016) MITC95 [1]: 0.3906 µM
Klebsiella pneumoniae expressing VIM-1 (IHMA599644) MITC95 [2]: 1.563 µM
Serratia marcescens expressing IMP-1 (CL5741) MITC95 [3]: 0.7813 µM
P. aeruginosa expressing IMP-1, efflux+ (MB9798) MITC95 [4]: 1.563 µM
Efflux ratio [4]: 2.00
P. aeruginosa expressing IMP-1, efflux− (MB9799) MITC95 [5]: 0.7813 µM

Cc1ccc(-c2ccc(S(=O)(=O)C3CNC3)c(S(N)(=O)=O)c2-c2nn[nH]n2)c2sc(N)nc12 [Example 33, 3-(2-amino-4-methylbenzo[d]thiazol-7-yl)-6-(azetidin-3-ylsulfonyl)-2-(2H-tetrazol-5-yl)benzenesulfonamide]
IC50 (IMP-1; [6]): 0.296 nM
IC50 (NDM-1): 0.0239 nM
IC50 (VIM-1): 0.12 nM
Escherichia coli expressing NDM-1 (CLB30016) MITC95 [1]: 1.563 µM
Klebsiella pneumoniae expressing VIM-1 (IHMA599644) MITC95 [2]: 3.125 µM
Serratia marcescens expressing IMP-1 (CL5741) MITC95 [3]: 1.563 µM
P. aeruginosa expressing IMP-1, efflux+ (MB9798) MITC95 [4]: 3.125 µM
Efflux ratio [4]: 2.00
P. aeruginosa expressing IMP-1, efflux− (MB9799) MITC95 [5]: 1.563 µM

Nc1nc2c(-c3ccc(S(=O)(=O)C4CNC4)c(S(N)(=O)=O)c3-c3nn[nH]n3)ccc(C(F)(F)F)c2s1 [Example 34, 3-(2-amino-7-(trifluoromethyl)benzo[d]thiazol-4-yl)-6-(azetidin-3-ylsulfonyl)-2-(2H-tetrazol-5-yl)benzenesulfonamide]
IC50 (IMP-1; [6]): 0.229 nM
IC50 (NDM-1): 0.0713 nM
IC50 (VIM-1): 0.175 nM
Escherichia coli expressing NDM-1 (CLB30016) MITC95 [1]: 0.7813 µM
Klebsiella pneumoniae expressing VIM-1 (IHMA599644) MITC95 [2]: 1.563 µM
Serratia marcescens expressing IMP-1 (CL5741) MITC95 [3]: 0.7813 µM
P. aeruginosa expressing IMP-1, efflux+ (MB9798) MITC95 [4]: 6.25 µM
Efflux ratio [4]: 8.00
P. aeruginosa expressing IMP-1, efflux− (MB9799) MITC95 [5]: 0.7813 µM

Nc1cc2cccc(-c3ccc(S(=O)(=O)C4CNC4)c(S(N)(=O)=O)c3-c3nn[nH]n3)c2cn1 [Example 35, 3-(3-aminoisoquinolin-8-yl)-6-(azetidin-3-ylsulfonyl)-2-(2H-tetrazol-5-yl)benzenesulfonamide]
IC50 (IMP-1; [6]): 0.503 nM
IC50 (NDM-1): 0.0695 nM
IC50 (VIM-1): 0.243 nM
Escherichia coli expressing NDM-1 (CLB30016) MITC95 [1]: 1.563 µM
Klebsiella pneumoniae expressing VIM-1 (IHMA599644) MITC95 [2]: 6.25 µM
Serratia marcescens expressing IMP-1 (CL5741) MITC95 [3]: 1.563 µM
P. aeruginosa expressing IMP-1, efflux+ (MB9798) MITC95 [4]: 1.563 µM
Efflux ratio [4]: 1.00
P. aeruginosa expressing IMP-1, efflux− (MB9799) MITC95 [5]: 1.563 µM

Nc1ccc2cccc(-c3ccc(S(=O)(=O)C4CNC4)c(S(N)(=O)=O)c3-c3nn[nH]n3)c2n1 [Example 36, 3-(2-aminoquinolin-8-yl)-6-(azetidin-3-ylsulfonyl)-2-(2H-tetrazol-5-yl)benzenesulfonamide]
IC50 (IMP-1; [6]): 0.357 nM
IC50 (NDM-1): 0.104 nM
IC50 (VIM-1): 0.282 nM
Escherichia coli expressing NDM-1 (CLB30016) MITC95 [1]: 3.125 µM
Klebsiella pneumoniae expressing VIM-1 (IHMA599644) MITC95 [2]: 1.563 µM
Serratia marcescens expressing IMP-1 (CL5741) MITC95 [3]: 0.7813 µM
P. aeruginosa expressing IMP-1, efflux+ (MB9798) MITC95 [4]: 0.7813 µM
Efflux ratio [4]: 1.00
P. aeruginosa expressing IMP-1, efflux− (MB9799) MITC95 [5]: 0.7813 µM

Nc1nc2c(-c3ccc(S(=O)(=O)C4CNC4)c(S(N)(=O)=O)c3-c3nn[nH]n3)cccc2c(=O)[nH]1 [Example 37, 3-(2-amino-4-oxo-3,4-dihydroquinazolin-8-yl)-6-(azetidin-3-ylsulfonyl)-2-(2H-tetrazol-5-yl)benzenesulfonamide]
IC50 (IMP-1; [6]): 1.9 nM
IC50 (NDM-1): 0.081 nM
IC50 (VIM-1): 0.348 nM
Escherichia coli expressing NDM-1 (CLB30016) MITC95 [1]: 25 µM
Klebsiella pneumoniae expressing VIM-1 (IHMA599644) MITC95 [2]: 6.25 µM
Serratia marcescens expressing IMP-1 (CL5741) MITC95 [3]: 3.125 µM
P. aeruginosa expressing IMP-1, efflux+ (MB9798) MITC95 [4]: 3.125 µM
Efflux ratio [4]: 2.00
P. aeruginosa expressing IMP-1, efflux− (MB9799) MITC95 [5]: 1.563 µM

Nc1nc2c(-c3ccc(S(=O)(=O)C4CNC4)c(S(N)(=O)=O)c3-c3nn[nH]n3)ccc(C(=O)O)c2s1 [Example 38, 2-amino-4-(4-(azetidin-3-ylsulfonyl)-3-sulfamoyl-2-(2H-tetrazol-5-yl)phenyl)benzo[d]thiazole-7-carboxylic Acid]
IC50 (IMP-1; [6]): 0.126 nM
IC50 (NDM-1): 0.0286 nM
IC50 (VIM-1): 0.341 nM
Escherichia coli expressing NDM-1 (CLB30016) MITC95 [1]: 31.25 µM
Klebsiella pneumoniae expressing VIM-1 (IHMA599644) MITC95 [2]: 25 µM
Serratia marcescens expressing IMP-1 (CL5741) MITC95 [3]: 12.5 µM
P. aeruginosa expressing IMP-1, efflux+ (MB9798) MITC95 [4]: 9.375 µM
Efflux ratio [4]: 1.50
P. aeruginosa expressing IMP-1, efflux− (MB9799) MITC95 [5]: 6.25 µM
